Earlier results on one compound are cited in US20230346696A1, “SPRAY DRIED LOW HYGROSCOPICITY ACTIVE POWDER COMPOSITIONS” (PHILIP MORRIS PRODUCTS S.A., priority 2020, published 2023).

The conditions of this data set: 25° C.

On to `OC[C@H]1O[C@H](O[C@H]2O[C@H](CO)[C@@H](O)[C@H](O)[C@H]2O)[C@H](O)[C@@H](O)[C@@H]1O` [trehalose], for which the solubility is recorded as 69 g/100 ml water.
